Test results published in patent US20210244720A1, “Therapeutic Tyrosine Kinase Inhibitors for Relapsing Multiple Sclerosis (RMS)” (Genzyme Corporation, priority 2020, published 2021).

Test system: participants with relapsing multiple sclerosis (RMS)
Assay: Phase 2b study in RMS: safety and tolerability (adverse events, laboratory tests, ECG, vital signs)
[1] = 5 mg, 12 weeks treatment, n = 33
[2] = 5 mg, BTK inhibitor treatment period, safety population, N = 32
[3] = 5 mg, BTK inhibitor treatment period, safety population, N = 33
[4] = 15 mg, 12 weeks treatment, n = 32
[5] = 15 mg, BTK inhibitor treatment period, safety population, N = 32
[6] = 30 mg, 12 weeks treatment, n = 33
[7] = 30 mg, BTK inhibitor treatment period, safety population, N = 33
[8] = 60 mg, 12 weeks treatment, n = 32

In the case of C=CC(=O)N1CCC[C@@H](n2c(=O)n(-c3ccc(Oc4ccccc4)cc3)c3c(N)nccc32)C1 [the BTK inhibitor, (R)-1-(1-acryloylpiperidin-3-yl)-4-amino-3-(4-phenoxyphenyl)-1H-imidazo[4,5-c]pyridin-2(3H)-one], the “Accidental overdose, patients n (%)” value [1] was 0, the “Alanine aminotransferase increased, patients n (%)” value [1] was 1 (3%) and the “Alopecia, patients n (%)” value [1] was 1 (3%). The “Back pain, patients n (%)” value [1] was 1 (3%), the “Gastroenteritis, patients n (%)” value [1] was 1 (3%) and the “Headache, patients n (%)” value [1] was 1 (3%). The “Muscle spasticity, patients n (%)” value [1] was 0, the “Nasopharyngitis, patients n (%)” value [1] was 1 (3%) and the “Oropharyngeal pain, patients n (%)” value [1] was 1 (3%). For the same compound, the “Peripheral edema, patients n (%)” value [1] was 2 (6%), the “Respiratory tract infection, patients n (%)” value [1] was 0 and the “Upper respiratory tract infection, patients n (%)” value [1] was 2 (6%). The “Participants with any TEAE, %” value [2] was “(50.0) %”, the “Participants with any treatment-related TEAE, %” value [2] was “(18.8) %” and the “Participants with treatment emergent SAE(s), Any class, n(%)” value (“Participants … Any class, n(%)” below) [2] was 0. For the same compound, the “Participants with treatment emergent SAE(s), Multiple sclerosis relapse, n(%)” value (from here on “Participants … Multiple sclerosis relapse, n(%)”) [2] was 0, the “Participants with treatment emergent SAE(s), NERVOUS SYSTEM DISORDERS, n(%)” value (“Participants … NERVOUS SYSTEM DISORDERS, n(%)” below) [2] was 0 and the “AESI, Alanice aminotransferase increased, n (%)” value [3] was 0. For the same compound, the “AESI, Investigations, n (%)” value [3] was 0, the “Any AESI, n (%)” value [3] was 0 and the “AESI, Alanice aminotransferase increased, n (%)” value (5 mg, Weeks 1 to 4, N = 16) was 0. For the same compound, the “AESI, Investigations, n (%)” value (5 mg, Weeks 1 to 4, N = 16) was 0, the “Any AESI, n (%)” value (5 mg, Weeks 1 to 4, N = 16) was 0 and the “Participants with any TEAE, %” value (5 mg, Weeks 1 to 4, N = 32) was “(25.0) %”. The “Participants with any treatment-related TEAE, %” value (5 mg, Weeks 1 to 4, N = 32) was “(12.5) %”, the “Any AE, %” value (5 mg, Weeks 1 to 4, n = 16) was “(31.3%)” and the “Any treatment-related AE, %” value (5 mg, Weeks 1 to 4, n = 16) was “(12.5%)”. For the same compound, the “Any AE, %” value (5 mg, Weeks 1 to 12, n = 33) was “(57.6) %”, the “Any treatment-related AE, %” value (5 mg, Weeks 1 to 12, n = 33) was “(15.2) %” and the “Accidental overdose, patients n (%)” value [4] was 0. For the same compound, the “Alanine aminotransferase increased, patients n (%)” value [4] was 0, the “Alopecia, patients n (%)” value [4] was 1 (3%) and the “Back pain, patients n (%)” value [4] was 1 (3%). For the same compound, the “Gastroenteritis, patients n (%)” value [4] was 0, the “Headache, patients n (%)” value [4] was 3 (9%) and the “Muscle spasticity, patients n (%)” value [4] was 0. For the same compound, the “Nasopharyngitis, patients n (%)” value [4] was 0, the “Oropharyngeal pain, patients n (%)” value [4] was 0 and the “Peripheral edema, patients n (%)” value [4] was 0. For the same compound, the “Respiratory tract infection, patients n (%)” value [4] was 1 (3%), the “Upper respiratory tract infection, patients n (%)” value [4] was 2 (6%) and the “AESI, Alanice aminotransferase increased, n (%)” value [5] was 0. For the same compound, the “AESI, Investigations, n (%)” value [5] was 0, the “Any AESI, n (%)” value [5] was 0 and the “Participants with any TEAE, %” value [5] was “(56.3) %”. The “Participants with any treatment-related TEAE, %” value [5] was “(9.4) %”, the “Participants … Any class, n(%)” value [5] was 0 and the “Participants … Multiple sclerosis relapse, n(%)” value [5] was 0. For the same compound, the “Participants … NERVOUS SYSTEM DISORDERS, n(%)” value [5] was 0, the “AESI, Alanice aminotransferase increased, n (%)” value (15 mg, Weeks 1 to 4, N = 16) was 0 and the “AESI, Investigations, n (%)” value (15 mg, Weeks 1 to 4, N = 16) was 0. For the same compound, the “Any AESI, n (%)” value (15 mg, Weeks 1 to 4, N = 16) was 0, the “Participants with any TEAE, %” value (15 mg, Weeks 1 to 4, N = 32) was “(43.8) %” and the “Participants with any treatment-related TEAE, %” value (15 mg, Weeks 1 to 4, N = 32) was “(3.1) %”. The “Any AE, %” value (15 mg, Weeks 1 to 4, n = 16) was “(18.9%)”, the “Any AE, %” value (15 mg, Weeks 1 to 12, n = 32) was “(53.1) %” and the “Any treatment-related AE, %” value (15 mg, Weeks 1 to 12, n = 32) was “(3.1) %”. For the same compound, the “ALT level of the AESI participant” value (30 mg group, Week 8 visit) was 105 U/L, the “ALT level of the AESI participant” value (30 mg group, within 4 days after Week 8 visit) was 32 U/L and the “AESIs (alanine aminotransferase increased >3×ULN)” value (30 mg treatment period) was 1. For the same compound, the “Accidental overdose, patients n (%)” value [6] was 0, the “Alanine aminotransferase increased, patients n (%)” value [6] was 1 (3%) and the “Alopecia, patients n (%)” value [6] was 0. The “Back pain, patients n (%)” value [6] was 2 (6%), the “Gastroenteritis, patients n (%)” value [6] was 0 and the “Headache, patients n (%)” value [6] was 1 (3%). For the same compound, the “Muscle spasticity, patients n (%)” value [6] was 1 (3%), the “Nasopharyngitis, patients n (%)” value [6] was 1 (3%) and the “Oropharyngeal pain, patients n (%)” value [6] was 1 (3%). For the same compound, the “Peripheral edema, patients n (%)” value [6] was 0, the “Respiratory tract infection, patients n (%)” value [6] was 1 (3%) and the “Upper respiratory tract infection, patients n (%)” value [6] was 1 (3%). For the same compound, the “AESI, Alanice aminotransferase increased, n (%)” value [7] was 1 (3.0), the “AESI, Investigations, n (%)” value [7] was 1 (3.0) and the “Any AESI, n (%)” value [7] was 1 (3.0). The “Participants with any TEAE, %” value [7] was “(51.5) %”, the “Participants with any severe TEAE, %” value [7] was “(3.0) %” and the “Participants with any treatment emergent SAE, %” value [7] was “(3.0) %”. The “Participants with any treatment-related TEAE, %” value [7] was “(12.1) %”, the “Participants … Any class, n(%)” value [7] was 1 (3.0) and the “Participants … Multiple sclerosis relapse, n(%)” value [7] was 1 (3.0). The “Participants … NERVOUS SYSTEM DISORDERS, n(%)” value [7] was 1 (3.0), the “AESI, Alanice aminotransferase increased, n (%)” value (30 mg, Weeks 1 to 4, N = 16) was 0 and the “AESI, Investigations, n (%)” value (30 mg, Weeks 1 to 4, N = 16) was 0. For the same compound, the “Any AESI, n (%)” value (30 mg, Weeks 1 to 4, N = 16) was 0, the “Participants with any TEAE, %” value (30 mg, Weeks 1 to 4, N = 33) was “(42.4) %” and the “Participants with any treatment-related TEAE, %” value (30 mg, Weeks 1 to 4, N = 33) was “(12.1) %”. The “Any AE, %” value (30 mg, Weeks 1 to 4, n = 16) was “(12.5%)”, the “Any AE, %” value (30 mg, Weeks 1 to 12, n = 33) was “(54.5) %” and the “Any treatment-related AE, %” value (30 mg, Weeks 1 to 12, n = 33) was “(12.1) %”. The “ALT level of the AESI participant” value (60 mg group, Week 4 visit, ULN 34 U/L) was 107 U/L, the “ALT level of the AESI participant” value (60 mg group, Week 12) was 28 U/L and the “AESIs (alanine aminotransferase increased >3×ULN)” value (60 mg treatment period) was 1. The “Accidental overdose, patients %” value [8] was “(9%)”, the “Accidental overdose, patients n” value [8] was 3 and the “Alanine aminotransferase increased, patients %” value [8] was “(3%)”. For the same compound, the “Alanine aminotransferase increased, patients n” value [8] was 1, the “Alopecia, patients %” value [8] was “(3%)” and the “Alopecia, patients n” value [8] was 1. For the same compound, the “Back pain, patients n” value [8] was 0, the “Gastroenteritis, patients %” value [8] was “(6%)” and the “Gastroenteritis, patients n” value [8] was 2. For the same compound, the “Headache, patients %” value [8] was “(13%)”, the “Headache, patients n” value [8] was 4 and the “Muscle spasticity, patients %” value [8] was “(6%)”. For the same compound, the “Muscle spasticity, patients n” value [8] was 2.
